Test results taken from patent publication US20110245334A1, “USE OF RACEMATES OF PINOCEMBRIN IN PREPARING MEDICAMENTS FOR TREATING STROKE” (CSPC Zhonggi Pharmaceutical Technology (Shijiazhuang) Co. …, priority 2008, published 2011).

Tests used:
in vivo = conditions: SD, rat, iv
MCAO rats = assay: Cerebral edema and Evans blue / fluorescein sodium leakage, MCAO; format: in vivo, rat; conditions: 24 hours
Description: After surgery, a mixture solution of EB/NF (0.5%, dissolved in normal saline) of 0.25 ml was immediately (immediately after administration in the administration groups) injected via tail vein in the animals. 24 hours later, a normal saline was perfused in the hearts of the rats to get rid of unbound dye. The rats were decollated and the brain tissues were promptly removed and separated into ischemic hemisphere and non-ischemic hemisphere. The two hemispheres were weighted respectively and homogenated with 7.5% (w/v) trichloroacetic acid (TCA). The homogenate was divided into two parts, in which 1 ml homogenate was adjusted with 52 μl NaOH (5N) to reach a neutral pH value, and 200 μl of it was taken out to determine the fluorescence intensity (excitation 485 nm, emission 535 nm), the NF thereof was determined by using a standard curve made with NF solutions of concentration series. Another part of homogenate was centrifuged for 20 min at 12000 g and 4° C. 200 μl supernatant was taken out to a microplate and its absorbance was determined at 620 nm, and EB thereof was determined by using a standard curve made with EB solutions of concentration series. The results were expressed in form of μg EB (or NF)/g brain wet weight. Percentage of brain edema was expressed as: (brain weight in ischemic hemisphere−brain weight in non-ischemic hemisphere)/brain weight in non-ischemic hemisphere×100%.

NO and TNF-α = NO and TNF-α contents in MCAO rats' serum; format: in vivo, rat; conditions: 24 hours after ischemia
[1] = tested on: cerebral ischemic tissue in MCAO rats; assay: Energy metabolism indexes in cerebral ischemic tissue, MCAO; format: in vivo, rat; conditions: for increase of energy index relative to the model group: 24 hours of cerebral ischemia; for ADP / AMP / ATP / CrP / Energy Load: cerebral ischemic tissue, MCAO rats
Description: The obtained r values were respectively rATP=0.9897, rADP=0.9896, rAMP=0.9893, rCrP=0.9981. The recovery rates of 4 kinds of standard materials were respectively (86.6±5.6) %, (94.45±7.5) %, (83.4±6.1) %, (78.69±7.3) %.

[2] = tested on: TNF-α, IL-1β, ICAM-1, VCAM-1, iNOS, AQP-4; assay: Expression of TNF-α, IL-1β, ICAM-1, VCAM-1, iNOS and AQP-4 in ischemic cerebral tissue (FIG. 2); format: in vivo, rat
Description: B is a statistic chart that quantifies the expression of TNF-α, IL-1β, ICAM-1, VCAM-1, iNOS and AQP-4 with β-actin as internal standard.
With β-actin as internal standard, the expressions of TNF-α, IL-1β, ICAM-1, VCAM-1, iNOS, AQP-4 were quantified, and the inhibition effects of pinocembrin racemate on the above proteins were seen intuitively.

tMCAO rats [3] = assay: Therapeutic time window in focal cerebral ischemia-reperfusion injured rats; format: in vivo, rat; conditions: 1 mg/kg, 5 mg/kg; for effect on neurobehavioral injury, infarct volume and cerebral edema: tMCAO rats
Description: (§1) 1. In the test, transient middle cerebral artery occlusion (tMCAO) model of rats was adopted. The reperfusion was performed after focal cerebral ischemia for 2 hours so as to inspect therapeutic time window of pinocembrin after focal cerebral ischemia. The rats were administered by pinocembrin racemate (1 mg/kg, 5 mg/kg, intravenous injection) after reperfusion 1 hour, 4 hours and 6 hours (i.e., ischemia 3 hour, 6 hours and 8 hours). (R)-pinocembrin and (S)-pinocembrin (1 mg/kg, 5 mg/kg, intravenous injection) were administered after reperfusion 1 hour and 4 hours (i.e., ischemia 3 hour and 6 hours). The therapeutic time windows of these drugs in focal cerebral ischemia were assessed by studying their effects to neurological symptom scores, infarct sizes and brain water contents during 24 hours after tMCAO.
(§2) 2.4 Experimental Grouping and Administration • Sham operation group (intravenous injection of normal saline after 3 hours of ischemia); • Model group (intravenous injection of 50 mg/kg hydroxypropyl β-cyclodextrin after 3 hours of ischemia); • Nimodipine group (1 mg/kg, administered after 3 hours of ischemia); • Pinocembrin racemate group (1 mg/kg, 5 mg/kg, administered after 3, 6 and 8 hours of ischemia); • (R)-pinocembrin group (1 mg/kg, 5 mg/kg, administered after 3 and 6 hours of ischemia); • (S)-pinocembrin group (1 mg/kg, 5 mg/kg, administered after 3 and 6 hours of ischemia).
(§3) First administration was performed by intravenous injection, and intraperitoneal injection was carried out once 12 hours later with a dose 1.5 times of that for intravenous injection.

tMCAO rats [4] = assay: Neurobehavioral examination (Bederson's score), tMCAO time window study; format: in vivo, rat; conditions: 2 hours ischemia and 24 hours reperfusion
Description: as §1
The CCA and ICA were clipped with artery clips. Two No. 0 surgery lines were litigated on the ECA distal end with 2-3 mm spacing and then the vascular between the two surgery lines was cut. The distal end of ECA was pulled until it formed a straight line with the ICA. An incision was cut on ECA and a nylon line was inserted through ECA into ICA. After the artery clip was loosen, the nylon line was pushed on into the brain through ICA and inserted in depth of 18.5±0.5 mm when resistance was felt slightly. The nylon line reached a smaller anterior cerebral artery through the beginning of MCA and then the blood flow obstruction in right MCA was established. the animals were kept in anesthesia during the obstruction. After 2 hours of obstruction, the nylon line was gently pulled out to ECA stub to form reperfusion. During the surgery process, the animals were irradiated by table lamp of 100 W to maintain the body temperature. The room temperature was kept in range of 23-25° C.
as §2, §3
Neurobehavioral examination was performed respectively when the animals were awake after surgery and before the animals were put to death. Bederson's score was adopted (see details in Example 2, 1. Neurobehavioral Examination).

[5] = 24 h after ischemia, 3 mg/kg, 10 mg/kg, 30 mg/kg in early stage of ischemia, FIG. 2

With O=C1CC(c2ccccc2)Oc2cc(O)cc(O)c21 (racemic) [Pinocembrin racemate, pinocembrin racemate] the LD50 (in vivo) was 491 mg/kg, the “EB leakage (μg/g tissue)” value (MCAO rats; 3 mg/kg iv) was 6.16 ± 0.4 μg/g tissue and the “NF leakage (μg/g tissue)” value (MCAO rats; 3 mg/kg iv) was 1.48 ± 0.08 μg/g tissue. The “Percentage of brain edema volume (%)” value (MCAO rats; 3 mg/kg iv, 3 mg/kg) was 5.5±1.7%, the “EB leakage (μg/g tissue)” value (MCAO rats; 10 mg/kg iv) was 5.03 ± 0.8 μg/g tissue and the “NF leakage (μg/g tissue)” value (MCAO rats; 10 mg/kg iv) was 1.39 ± 0.20 μg/g tissue. For the same molecule, the “Percentage of brain edema volume (%)” value (MCAO rats; 10 mg/kg iv, 10 mg/kg) was 4.1±1.5%, the “EB leakage (μg/g tissue)” value (MCAO rats; 30 mg/kg iv) was 4.39 ± 0.4 μg/g tissue and the “NF leakage (μg/g tissue)” value (MCAO rats; 30 mg/kg iv) was 1.30 ± 0.15 μg/g tissue. For the same molecule, the “Percentage of brain edema volume (%)” value (MCAO rats; 30 mg/kg iv, 30 mg/kg) was 3.2±2.1%, the “NO” value (NO and TNF-α; 3 mg/kg) was 109.80 ± 9.38 µmol/L and the “TNF-α” value (NO and TNF-α; 3 mg/kg) was 1163.09 ± 51.12 pg/mL. For the same molecule, the “NO” value (NO and TNF-α; 10 mg/kg) was 107.11 ± 9.13 µmol/L, the “TNF-α” value (NO and TNF-α; 10 mg/kg) was 1104.83 ± 48.43 pg/mL and the “NO” value (NO and TNF-α; 30 mg/kg) was 104.75 ± 5.03 µmol/L. The “TNF-α” value (NO and TNF-α; 30 mg/kg) was 1057.48 ± 48.48 pg/mL, the “increase of energy index relative to the model group” value ([1]; first of two values printed for groups 3, 10, 30 mg/kg) was 34.6% and the “increase of energy index relative to the model group” value ([1]; second of two values printed for groups 3, 10, 30 mg/kg) was 45.8%. The ADP ([1]; 3 mg/kg) was 0.31 ± 0.04 µmol/g, the AMP ([1]; 3 mg/kg) was 0.02 ± 0.00 µmol/g and the ATP ([1]; 3 mg/kg) was 1.18 ± 0.18 µmol/g. The CrP ([1]; 3 mg/kg) was 3.98 ± 1.23 µmol/g, the “Energy Load” value ([1]; 3 mg/kg) was 0.73 ± 0.23 and the ADP ([1]; 10 mg/kg) was 0.35 ± 0.06 µmol/g. It also gave an AMP ([1]; 10 mg/kg) of 0.02 ± 0.00 µmol/g, an ATP ([1]; 10 mg/kg) of 1.62 ± 0.21 µmol/g and a CrP ([1]; 10 mg/kg) of 4.12 ± 1.25 µmol/g. The “Energy Load” value ([1]; 10 mg/kg) was 0.88 ± 0.23, the ADP ([1]; 30 mg/kg) was 0.38 ± 0.05 µmol/g and the AMP ([1]; 30 mg/kg) was 0.02 ± 0.00 µmol/g. The ATP ([1]; 30 mg/kg) was 1.97 ± 0.58 µmol/g, the CrP ([1]; 30 mg/kg) was 4.43 ± 1.34 µmol/g and the “Energy Load” value ([1]; 30 mg/kg) was 0.96 ± 0.29. For the same molecule, the “expression of cytokines TNF-α and IL-1β in cerebral ischemia tissue” value [2, 5] was “inhibited the expression of TNF-α, IL-1β in some extents”, the “expression of iNOS and AQP-4 protein” value [2, 5] was “inhibited the expression of iNOS and AQP-4 protein in some extents” and the “inhibition of expression of TNF-α, IL-1β, ICAM-1, VCAM-1, iNOS, AQP-4 quantified with β-actin as internal standard” value ([2]; doses of 10 mg/kg and 30 mg/kg) was “showed better results”. The therapeutic time window (tMCAO rats [3]; acute ischemic stroke in rats (tMCAO), iv) was “about 6 hours”, the “effect on neurobehavioral injury, infarct volume and cerebral edema” value (tMCAO rats [3]; initially injected after 3 hours of ischemia) was “significant” and the “effect on neurobehavioral injury, infarct volume and cerebral edema” value (tMCAO rats [3]; initially injected after 6 hours of ischemia) was “significant”. For the same molecule, the Neurobehavioral value (tMCAO rats [4]; 1 mg/kg, 3 h) was 1.44 ± 0.72, the Neurobehavioral value (tMCAO rats [4]; 1 mg/kg, 6 h) was 1.68 ± 0.46 and the Neurobehavioral value (tMCAO rats [4]; 1 mg/kg, 8 h) was 1.88 ± 0.61. For the same molecule, the Neurobehavioral value (tMCAO rats [4]; 5 mg/kg, 3 h) was 1.44 ± 0.52, the Neurobehavioral value (tMCAO rats [4]; 5 mg/kg, 6 h) was 1.66 ± 0.77 and the Neurobehavioral value (tMCAO rats [4]; 5 mg/kg, 8 h) was 1.91 ± 0.66.

Work on COCCOC(=O)C1=C(C)NC(C)=C(C(=O)OC(C)C)C1c1cccc([N+](=O)[O-])c1 (stereo not shown) [Nimodipine, reference compound] yielded a Neurobehavioral value (tMCAO rats [4]; 1 mg/kg, 3 h) of 2.09 ± 0.63.
